{"source": "patent US6060481A", "about": "“Method for improving insulin sensitivity using an adenosine receptor antagonist” (priority 1999, dated 2000)", "key": {"[1]": {"target": "T1, human A2A adenosine receptor (Homo sapiens, UniProt P29274)", "T1 construct": "expressed in transfected cells", "T1 sequence (P29274 whole entry)": "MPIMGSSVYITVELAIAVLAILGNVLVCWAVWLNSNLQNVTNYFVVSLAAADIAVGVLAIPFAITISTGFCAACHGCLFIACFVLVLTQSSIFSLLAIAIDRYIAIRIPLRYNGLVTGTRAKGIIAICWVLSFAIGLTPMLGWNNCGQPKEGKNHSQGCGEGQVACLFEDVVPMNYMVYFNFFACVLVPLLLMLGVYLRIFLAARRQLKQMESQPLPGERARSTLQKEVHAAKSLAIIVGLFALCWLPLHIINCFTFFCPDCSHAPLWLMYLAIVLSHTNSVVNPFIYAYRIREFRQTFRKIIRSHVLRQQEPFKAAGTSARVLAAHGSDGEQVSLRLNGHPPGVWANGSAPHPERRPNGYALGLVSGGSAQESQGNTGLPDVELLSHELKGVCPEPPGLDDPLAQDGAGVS", "experiment": "Binding constants against cloned and expressed human adenosine receptor subtypes (A2A)", "details": "read-out: Binding constant (KD) A2A"}, "[2]": {"target": "T2, human A3 adenosine receptor (Homo sapiens, UniProt P0DMS8)", "T2 construct": "expressed in transfected cells", "T2 sequence (P0DMS8 1-318)": "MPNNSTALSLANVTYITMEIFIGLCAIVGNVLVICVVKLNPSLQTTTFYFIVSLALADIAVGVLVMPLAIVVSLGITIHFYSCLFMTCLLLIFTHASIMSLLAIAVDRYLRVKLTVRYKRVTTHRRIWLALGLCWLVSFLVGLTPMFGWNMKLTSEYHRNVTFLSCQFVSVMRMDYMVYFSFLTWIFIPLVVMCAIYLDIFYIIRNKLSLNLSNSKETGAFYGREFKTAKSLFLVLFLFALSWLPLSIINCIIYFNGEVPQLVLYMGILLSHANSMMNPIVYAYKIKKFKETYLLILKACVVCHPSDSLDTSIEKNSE", "experiment": "Binding constants against cloned and expressed human adenosine receptor subtypes (A3)", "details": "read-out: Binding constant (KD) A3"}, "[3]": {"test_system": "whole body glucose uptake", "experiment": "Euglycemic hyperinsulinemic clamp, whole body glucose disposal and IMGU", "format": "in vivo, Zucker rats", "protocol": "In this example, 6-8 week old lean and obese female animals were used. Each group received either vehicle or vehicle plus 1,3-dipropyl-8-(p-acrylic)phenylxanthine (BWA1433) (12 mg/kg every 12 h) for one week prior to the start of the experimental protocol, as described by Xu, et al., Am. J. Physiol., 274 (Endocrinol. Metab. 37): E271-E279 (1988). The vehicle in this case was 10 mg/ml methyl cellulose in H2 O. The final dose of BWA1433 or vehicle was administered approximately 1 h prior to the start of the experimental protocol.\nAfter samples were obtained for basal metabolic determinations, a euglycemic hyperinsulinemic clamp was performed. Regular human insulin (Eli Lilly, Indianapolis, Ind.) was infused intravenously at a rate of 100 mU·min^-1 ·kg^-1 for 3 h. This infusion rate has been previously determined to result in steady-state plasma insulin concentrations of approximately 5,000 uU/ml, as reported in Lang, et al., Endocrinology, 130:43-52 (1996); Lang, Am. J. Physiol., 263 (Endocrinol. Metab. 26): E703-E711 (1992); and Lang, et al., Metabolism, 39:1096-1107 (1990). […] Tritiated glucose was not infused during the hyperinsulinemic clamp, because preliminary studies indicate that this insulin infusion rate completely suppresses endogenous glucose appearance in both obese and lean animals.\n(§1) During the hyperinsulinemic clamp, blood glucose concentrations were determined at 10-min intervals using the YSI glucose analyzer (Yellow Springs, Ohio). Glucose specific activity was determined on neutralized supernatants of deproteinized plasma as taught by Lang, Am. J. Physiol, 263 (Endocrinol. Metab. 26): E703-D711 (1992). Tissue samples (600-900 mg wet wt) were immersed in ice-cold 0.5 N PCA, homogenized, and centrifuged. The concentration of phosphorylated 2-DG in tissues was calculated as the difference between total ^14 C-radioactivity of the neutral extract and the ^14 C-radioactivity remaining after Somogyi treatment as described in detail by Lang CH, Dobrescu C, and Meszaros K., Metabolism 39:1096-1107 (1990).\n(§2) Rates of whole body glucose appearance (Ra) and disappearance (Rd) are calculated using the steady-state equations of Steele, Ann. NY Acad. Sci., 82:420-430 (1959). The glucose metabolic clearance rate (MCR) is calculated by dividing the glucose Rd by the prevailing glucose concentration. Since the prevailing insulin levels during the hyperinsulinemic clamp completely suppress endogenous glucose production, the rate of whole body glucose disposal equals the exogenous glucose infusion rate. The increment in insulin-stimulated glucose uptake (IMGU) for each animals is calculated by subtracting the basal endogenous glucose Ra from the measured rate of glucose disposal determined during the last 40 min of the clamp. In vivo glucose uptake for each tissue examined is calculated based on the accumulation of phosphorylated 2-DG by a respective tissue, the integrated 2-DG:glucose ratio in the plasma during the 40-min labeling period, and the lumped constant as described by Lang, Endocrinology, 128:645-653 (1991)."}, "[4]": {"test_system": "glucose uptake by individual tissues", "experiment": "In vivo tissue glucose uptake with 14C 2-deoxyglucose during clamp", "parameters": "species or system Zucker rats", "details": "for Decrease in glucose uptake by adipose tissue: epididymal fat, normalized to wet weight", "protocol": "In vivo glucose uptake by individual tissues was determined using [^14 C]-labeled 2-deoxyglucose (2-DG), as described previously in, for example, the Lang references cited above. Tissue-specific glucose uptake was determined between 140 and 180 min after the start of the euglycemic hyperinsulinemic clamp. A tracer amount of 2-DG (8 μCi/rat; Amersham, Arlington Heights, Ill.) was injected intravenously, and tissues obtained 40 min later. Prior to tissue collection, serial arterial blood samples (0.2 ml) were withdrawn into heparinized syringes, plasma deproteinized with perchloric acid and ^14 C-radioactivity determined. Thereafter, animals were anesthetized with sodium pentobarbital, exsanguinated, and selected tissues were excised to determine the intracellular accumulation of phosphorylated 2-DG.\nas §1, §2"}, "[5]": {"details": "Zucker rats; cited from earlier work"}, "[6]": {"details": "obese rats, one week treatment, clamp"}}, "data": [{"smiles": "CCCn1c(=O)c2[nH]c(-c3ccc(C=CC(=O)O)cc3)nc2n(CCC)c1=O", "note": "[BWA1433, 1,3-dipropyl-8-(p-acrylic)phenylxanthine]", "values": [{"measurement": "Kd", "setting": "[1]", "result": 190, "unit": "nM"}, {"measurement": "Kd", "setting": "[2]", "result": 30, "unit": "nM"}, {"measurement": "Change in IMGU", "setting": "[3]; lean Zucker rats", "result": "No change"}, {"measurement": "Decrease in whole body glucose disposal", "setting": "[3]; lean animals, hyperinsulinemic clamp", "result": 16, "unit": "%"}, {"measurement": "Average plasma glucose concentration during final hour of clamp", "setting": "[3]; lean rats", "result": "5.4 ± 0.1", "unit": "mM"}, {"measurement": "Average plasma glucose concentration during final hour of clamp", "setting": "[3]; obese rats", "result": "5.5 ± 0.1", "unit": "mM"}, {"measurement": "Increase in IMGU compared to vehicle-treated obese animals", "setting": "[3]; obese rats", "result": "more than 6 fold"}, {"measurement": "Increase in rate of whole body glucose uptake compared to untreated obese rats", "setting": "[3]; obese rats, hyperinsulinemic clamp", "result": 88, "unit": "%"}, {"measurement": "Whole body glucose uptake rate lower than in lean control animals", "setting": "[3]; treated obese animals versus lean control", "result": "approximately 50%"}, {"measurement": "Glucose uptake under hyperinsulinemic conditions in heart", "setting": "[4]; lean animals", "result": "unaffected"}, {"measurement": "Glucose uptake under hyperinsulinemic conditions in liver", "setting": "[4]; lean animals", "result": "unaffected"}, {"measurement": "Decrease in glucose uptake by gastrocnemius", "setting": "[4]; lean rats", "result": 16, "unit": "%"}, {"measurement": "Decrease in glucose uptake by soleus", "setting": "[4]; lean rats", "result": 12, "unit": "%"}, {"measurement": "Decrease in glucose uptake by adipose tissue", "setting": "[4]; lean rats", "result": 48, "unit": "%"}, {"measurement": "Change in glucose uptake in heart", "setting": "[4]; obese rats", "result": "no significant change"}, {"measurement": "Change in glucose uptake in liver", "setting": "[4]; obese rats", "result": "no significant change"}, {"measurement": "Decrease in glucose uptake by adipose tissue", "setting": "[4]; obese rats", "result": 54, "unit": "%"}, {"measurement": "Increase in glucose uptake in gastrocnemius compared to vehicle-treated obese rats", "setting": "[4]; [6]", "result": 44, "unit": "%"}, {"measurement": "Increase in glucose uptake in soleus compared to vehicle-treated obese rats", "setting": "[4]; [6]", "result": 47, "unit": "%"}, {"measurement": "Reduction in glucose uptake by fat", "setting": "[4]; on the basis of intracellular aqueous volume, both groups (lean, obese)", "result": "approximately 50%"}, {"measurement": "Glucose tolerance", "setting": "[5]", "result": "improves glucose tolerance"}]}]}
